For one assay, the target named is human TASK-3 (Homo sapiens (Human), UniProt Q9NPC2). Briefly: Inhibition of recombinant TASK-3 in stably transfected CHO cells (voltage-sensitive dye, KCl depolarization). The format is cell-based. Conditions: depolarization by 40 mM potassium chloride. Here is the method: (§1) B-2. Inhibition of Recombinant TASK-1 and TASK-3 In Vitro
(§2) The investigations on the inhibition of the recombinant TASK-1 and TASK-3 channels were conducted using stably transfected CHO cells. The compounds according to the invention were tested in this case by application of 40 mM potassium chloride in the presence of a voltage-sensitive dye according to the method described in detail in the following references [Whiteaker et al., Validation of FLIPR membrane potential dye for high-throughput screening of potassium channel modulators, J. Biomol. Screen. 6 (5), 305-312 (2001); Molecular Devices FLIPR Application Note: Measuring membrane potential using the FLIPR® membrane potential assay kit on Fluorometric Imaging Plate Reader (FLIPR®) systems, http://www.moleculardevices.com/reagents-supplies/assay-kits/ion-channels/flipr-membrane-potential-assay-kits]. The activity of the test substances was determined as their ability to inhibit a depolarization induced in the recombinant cells by 40 mM potassium chloride. The concentration which can block half of this depolarization is referred to as IC50.

The target in the next assay is human TASK-1 (Homo sapiens (Human), UniProt O14649). Nature of the assay: Inhibition of recombinant TASK-1 in stably transfected CHO cells (voltage-sensitive dye, KCl depolarization). The format is cell-based. Conditions: depolarization by 40 mM potassium chloride. Here is the method:
as §1, §2

Chain of human TASK-1 (O14649 whole entry): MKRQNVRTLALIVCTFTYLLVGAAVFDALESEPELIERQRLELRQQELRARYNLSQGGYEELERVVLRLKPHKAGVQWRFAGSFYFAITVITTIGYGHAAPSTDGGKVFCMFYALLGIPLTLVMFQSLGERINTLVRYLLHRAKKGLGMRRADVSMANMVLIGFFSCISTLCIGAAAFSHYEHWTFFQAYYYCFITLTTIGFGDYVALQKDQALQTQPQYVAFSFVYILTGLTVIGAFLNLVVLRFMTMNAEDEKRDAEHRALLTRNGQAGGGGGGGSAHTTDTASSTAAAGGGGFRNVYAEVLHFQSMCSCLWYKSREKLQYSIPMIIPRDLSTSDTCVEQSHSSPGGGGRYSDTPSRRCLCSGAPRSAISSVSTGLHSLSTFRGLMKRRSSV
Chain of human TASK-3 (Q9NPC2 whole entry): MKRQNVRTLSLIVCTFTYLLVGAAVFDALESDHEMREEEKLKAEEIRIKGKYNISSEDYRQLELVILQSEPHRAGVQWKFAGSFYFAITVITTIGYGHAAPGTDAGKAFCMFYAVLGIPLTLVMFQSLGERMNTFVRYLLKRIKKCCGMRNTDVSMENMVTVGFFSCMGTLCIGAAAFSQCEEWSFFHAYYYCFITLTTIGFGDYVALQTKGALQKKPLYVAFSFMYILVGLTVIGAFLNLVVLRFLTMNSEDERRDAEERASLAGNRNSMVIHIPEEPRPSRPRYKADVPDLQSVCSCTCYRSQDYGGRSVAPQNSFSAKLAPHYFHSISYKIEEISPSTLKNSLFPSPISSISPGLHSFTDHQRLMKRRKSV

For orientation: IC50 means the concentration that inhibits the measured activity by half. With `CC(C)c1ccc(-c2nc3ncccn3c2CN2CC3CCC2CN3C(=O)OC(C)(C)C)cc1` (racemic) [Example 7, tert-Butyl 5-{[2-(4-isopropylphenyl)imidazo[1,2-a]pyrimidine-3-yl]methyl}-2,5-diazabicyclo[2.2.2]octane-2-carboxylate], the results for the IC50 at human TASK-3 and at human TASK-1 were 570 nM and 8600 nM, respectively.

`CC(c1c(-c2ccc(Cl)cc2)nc2ncccn12)N1CC2CCC(C1)N2C(=O)OC(C)(C)C` (racemic) [Example 10, tert-Butyl 3-{1-[2-(4-chlorophenyl)imidazo[1,2-a]pyrimidin-3-yl]ethyl}-3,8-diazabicyclo[3.2.1]octane-8-carboxylate]: the IC50 stood at 130 nM at human TASK-3 and 2200 nM at human TASK-1.

Consider `CC(C)(C)OC(=O)N1CC2CCC1CN2Cc1c(-c2ccc(Cl)cc2)nc2ncccn12` (single isomer, unassigned) [Example 4, tert-Butyl 5-{[2-(4-chlorophenyl)imidazo[1,2-a]pyrimidin-3-yl]methyl}-2,5-diazabicyclo[2.2.2]octane-2-carboxylate], for which the IC50 came out at 97 nM at human TASK-3 and 470 nM at human TASK-1.

On to `CC(C)(C)OC(=O)N1CC2CCC1CN2Cc1c(-c2ccc(Cl)cc2)nc2ncccn12` (single isomer, unassigned) [Example 5, tert-Butyl 5-{[2-(4-chlorophenyl)imidazo[1,2-a]pyrimidin-3-yl]methyl}-2,5-diazabicyclo[2.2.2]octane-2-carboxylate], for which the 50% inhibitory concentration (IC50) is 1300 nM on human TASK-3 and 17000 nM on human TASK-1.

In the case of `COc1ccc(Cl)c(C(=O)N2CC3CCC2CN3Cc2c(-c3ccc(Cl)cc3)nc3ncccn23)n1` (single isomer, unassigned) [Example 23, (3-Chloro-6-methoxypyridin-2-yl)(5-{[2-(4-chlorophenyl)imidazo[1,2-a]pyrimidin-3-yl]methyl}-2,5-diazabicyclo[2.2.2]oct-2-yl)methanone], the half-inhibitory concentration (IC50) amounted to 100 nM on human TASK-3 and 1600 nM at human TASK-1.

`COc1ccc(F)c(C(=O)N2CC3CCC2CN3Cc2c(-c3ccc(Cl)cc3)nc3ncccn23)n1` (single isomer, unassigned) [Example 24, (5-{[2-(4-Chlorophenyl)imidazo[1,2-a]pyrimidin-3-yl]methyl}-2,5-diazabicyclo[2.2.2]oct-2-yl)(3-fluoro-6-methoxypyridin-2-yl)methanone]: the figures for the IC50 at human TASK-3 and at human TASK-1 were 102 nM and 410 nM, respectively.

Take `COc1ccc(C)c(C(=O)N2CC3CCC2CN3Cc2c(-c3ccc(Cl)cc3)nc3ncccn23)n1` (single isomer, unassigned) [Example 25, (5-{[2-(4-Chlorophenyl)imidazo[1,2-a]pyrimidin-3-yl]methyl}-2,5-diazabicyclo[2.2.2]oct-2-yl)(6-methoxy-3-methylpyridin-2-yl)methanone]: the IC50 at human TASK-3 was found to be 71 nM; at human TASK-1, 1100 nM.

In the case of `CC(C)(C)OC(=O)N1C2COCC1CN(Cc1c(-c3ccc(Cl)cc3)nc3ncccn13)C2` [Example 1, tert-Butyl 7-{[2-(4-chlorophenyl)imidazo[1,2-a]pyrimidin-3-yl]methyl}-3-oxa-7,9-diazabicyclo[3.3.1]nonane-9-carboxylate], the IC50 at human TASK-3 was 400 nM; on human TASK-1, 1700 nM.

`CC(C)(C)OC(=O)N1C2CCC1CN(Cc1c(-c3ccc(Cl)cc3)nc3ncccn13)C2` [Example 6, tert-Butyl 3-{[2-(4-chlorophenyl)imidazo[1,2-a]pyrimidin-3-yl]methyl}-3,8-diazabicyclo[3.2.1]octane-8-carboxylate]: the figures for the IC50 at human TASK-3 and at human TASK-1 were 41 nM and 1400 nM, respectively.

`CC(C)(C)OC(=O)N1CC2CCC1CN2Cc1c(-c2ccc(Br)cc2)nc2ncccn12` (stereo not shown) [Example 11]: the IC50 at human TASK-3 was found to be 16 nM; on human TASK-1, 2500 nM.

For `CC(C)(C)OC(=O)N1C2CCC1CN(Cc1c(-c3ccc(Br)cc3)nc3ncccn13)C2` [Example 12], the IC50 stood at 13 nM on human TASK-3 and 220 nM on human TASK-1.

Take `COc1cccc(C(=O)N2C3COCC2CN(Cc2c(-c4ccc(Cl)cc4)nc4ncccn24)C3)n1` [Example 13, (7-{[2-(4-Chlorophenyl)imidazo[1,2-a]pyrimidin-3-yl]methyl}-3-oxa-7,9-diazabicyclo[3.3.1]non-9-yl)(6-methoxypyridin-2-yl)methanone]: the results for the IC50 on human TASK-3 and on human TASK-1 were 33 nM and 1500 nM, respectively.

For the compound `COc1ccc(Cl)c(C(=O)N2C3COCC2CN(Cc2c(-c4ccc(Cl)cc4)nc4ncccn24)C3)n1` [Example 14, (3-Chloro-6-methoxypyridin-2-yl)(7-{[2-(4-chlorophenyl)imidazo[1,2-a]pyrimidin-3-yl]methyl}-3-oxa-7,9-diazabicyclo[3.3.1]non-9-yl)methanone], the IC50 on human TASK-3 was determined as 170 nM; at human TASK-1, 7600 nM.

In the case of `COc1ccc(F)c(C(=O)N2C3COCC2CN(Cc2c(-c4ccc(Cl)cc4)nc4ncccn24)C3)n1` [Example 15, (7-{[2-(4-Chlorophenyl)imidazo[1,2-a]pyrimidin-3-yl]methyl}-3-oxa-7,9-diazabicyclo[3.3.1]non-9-yl)(3-fluoro-6-methoxypyridin-2-yl)methanone], the IC50 on human TASK-3 turned out to be 19 nM; at human TASK-1, 1100 nM.

`CSc1cccc(C(=O)N2C3COCC2CN(Cc2c(-c4ccc(Cl)cc4)nc4ncccn24)C3)n1` [Example 16, (7-{[2-(4-Chlorophenyl)imidazo[1,2-a]pyrimidin-3-yl]methyl}-3-oxa-7,9-diazabicyclo[3.3.1]non-9-yl)[6-(methylsulfanyl)pyridin-2-yl]methanone]: the IC50 on human TASK-3 was 12 nM; on human TASK-1, 670 nM.

As for `O=C(C1CCCC1)N1C2COCC1CN(Cc1c(-c3ccc(Cl)cc3)nc3ncccn13)C2` [Example 17, (7-{[2-(4-Chlorophenyl)imidazo[1,2-a]pyrimidin-3-yl]methyl}-3-oxa-7,9-diazabicyclo[3.3.1]non-9-yl)(cyclopentyl)methanone], the figures for the IC50 at human TASK-3 and on human TASK-1 were 33 nM and 1200 nM, respectively.

Consider `COc1ccc(F)c(C(=O)N2C3COCC2CN(Cc2c(-c4ccc(C(C)C)cc4)nc4ncccn24)C3)n1` [Example 18, (3-Fluoro-6-methoxypyridin-2-yl)(7-{[2-(4-isopropylphenyl)imidazo[1,2-a]pyrimidin-3-yl]methyl}-3-oxa-7,9-diazabicyclo[3.3.1]non-9-yl)methanone], for which the values for the IC50 on human TASK-3 and at human TASK-1 were 8.6 nM and 910 nM, respectively.

For the compound `COc1cccc(C(=O)N2C3CCC2CN(Cc2c(-c4ccc(Cl)cc4)nc4ncccn24)C3)n1` [Example 20, (3-{[2-(4-Chlorophenyl)imidazo[1,2-a]pyrimidin-3-yl]methyl}-3,8-diazabicyclo[3.2.1]oct-8-yl)(6-methoxypyridin-2-yl)methanone], the half-inhibitory concentration (IC50) at human TASK-3 came to 38 nM; at human TASK-1, 160 nM.

Take `COc1ccc(F)c(C(=O)N2C3CCC2CN(Cc2c(-c4ccc(Cl)cc4)nc4ncccn24)C3)n1` [Example 22, (3-{[2-(4-Chlorophenyl)imidazo[1,2-a]pyrimidin-3-yl]methyl}-3,8-diazabicyclo[3.2.1]oct-8-yl)(3-fluoro-6-methoxypyridin-2-yl)methanone]: the values for the IC50 on human TASK-3 and at human TASK-1 were 5.2 nM and 340 nM, respectively.

Regarding `O=C(c1ccccc1F)N1C2COCC1CN(Cc1c(-c3ccc(Cl)cc3)nc3ncccn13)C2` [Example 30], the IC50 at human TASK-3 is 85 nM; at human TASK-1 it was 3500 nM.

As for `COc1cccc(C(=O)N2C3COCC2CN(Cc2c(-c4ccc(Cl)cc4)nc4ncccn24)C3)c1` [Example 31], the IC50 at human TASK-3 was determined as 140 nM; on human TASK-1, 7100 nM.

`O=C(c1ccccc1F)N1C2CCC1CN(Cc1c(-c3ccc(Cl)cc3)nc3ncccn13)C2` [Example 32]: the IC50 at human TASK-3 was 29 nM; on human TASK-1 it was 370 nM.

In the case of `CSc1cccc(C(=O)N2C3CCC2CN(Cc2c(-c4ccc(Cl)cc4)nc4ncccn24)C3)n1` [Example 33], the results for the IC50 at human TASK-3 and on human TASK-1 were 130 nM and 190 nM, respectively.

In the case of `O=C(C1CCCC1)N1C2CCC1CN(Cc1c(-c3ccc(Cl)cc3)nc3ncccn13)C2` [Example 34], the IC50 amounted to 29 nM on human TASK-3 and 76 nM on human TASK-1.

For the compound `COc1cccc(C(=O)N2C3CCC2CN(Cc2c(-c4ccc(Cl)cc4)nc4ncccn24)C3)c1` [Example 36], the IC50 at human TASK-3 stood at 80 nM; on human TASK-1 it was 310 nM.

With `O=C(C1CCCC1)N1CC2CCC1CN2Cc1c(-c2ccc(Cl)cc2)nc2ncccn12` (stereo not shown) [Example 37], the half-maximal inhibitory concentration (IC50) at human TASK-3 was determined as 140 nM; at human TASK-1, 1500 nM.

Turning to `COc1cccc(C(=O)N2CC3CCC2CN3Cc2c(-c3ccc(Cl)cc3)nc3ncccn23)c1` (stereo not shown) [Example 38], the results for the IC50 on human TASK-3 and on human TASK-1 were 320 nM and 9600 nM, respectively.

Take `O=C(c1ccccc1F)N1CC2CCC1CN2Cc1c(-c2ccc(Cl)cc2)nc2ncccn12` (stereo not shown) [Example 39]: the results for the IC50 at human TASK-3 and on human TASK-1 were 160 nM and 1400 nM, respectively.

Regarding `COc1cccc(C(=O)N2CC3CCC2CN3Cc2c(-c3ccc(Cl)cc3)nc3ncccn23)n1` (stereo not shown) [Example 40], the results for the IC50 on human TASK-3 and at human TASK-1 were 210 nM and 5700 nM, respectively.

Regarding `O=C(c1ccccc1F)N1CC2CCC1CN2Cc1c(-c2ccc(Cl)cc2)nc2ncccn12` (stereo not shown) [Example 42], the figures for the IC50 on human TASK-3 and at human TASK-1 were 340 nM and 1000 nM, respectively.

Consider `COc1cccc(C(=O)N2CC3CCC2CN3Cc2c(-c3ccc(Cl)cc3)nc3ncccn23)c1` (stereo not shown) [Example 43], for which the IC50 on human TASK-3 was 320 nM; on human TASK-1 it was 1000 nM.

For the compound `COc1cccc(C(=O)N2CC3CCC2CN3Cc2c(-c3ccc(Cl)cc3)nc3ncccn23)n1` (stereo not shown) [Example 44], the IC50 on human TASK-3 worked out at 190 nM; on human TASK-1 it was 1000 nM.

The record behind these values is patent US11098063B2, “Diazabicyclic substituted imidazopyrimidines and their use for the treatment of breathing disorders” (Bayer Aktiengesellschaft, priority 2017, dated 2021).
